This is an account of results in patent US10633350B2, “Diphenyl derivatives and uses thereof” (NOVARTIS AG, priority 2017, dated 2020).

The subject of this assay is FoxO3a. Kind of assay: FoxO3a inhibition assay (GFP-FoxO3a nuclear to cytoplasmic translocation) in U2OS GFP-FoxO3a H212R reporter cells. The format is cell-based. Conditions: Homo sapiens, 0.5 h, serum starved overnight, 30 minutes compound treatment, ratio of nuclear to cytosolic GFP intensity, AC50 = concentration that results in 50% activation or inhibition, read-out: FoxO AC50. The protocol:
Phosphorylation of Akt on S473 and FoxO3a nuclear to cytoplasmic translocation were used as readouts of PI3K/Akt/mTOR pathway activation downstream of growth factor signaling.
Reporter cell line. U2OS GFP-FoxO3a H212R reporter cell line was established by transducing U2OS cells with the retroviral plasmid pLEGFP-C1 containing FoxO3a H212R transgene and selecting for G418 resistant clones.
Reporter assay. U2OS GFP-FoxO3a H212R cells were plated in 384-well plates at 4000 cells per well in 30 microliters of McCoy's 5A medium containing 10% FBS. On day 1 the cells were washed with serum free medium and serum starved overnight. On day 2 the cells were treated with different doses of the compounds for 30 minutes, fixed with 4% Paraformaldehyde for 1 hour and stained with Phospho-AKT (Ser473) antibody (Cell Signaling Technology, catalog #4060) overnight at 4° C. After nuclei staining with Hoechst 33342 (Life Technologies, catalog # H3570) the plates were imaged with InCell 2000 (GE Healthcare Bio-Sciences). FoxO3a inhibition activity is calculated as the ratio of nuclear to cytosolic GFP intensity in percent. Akt activation is measured as the total cellular intensity of Phospho-Akt antibody staining in percent. DMSO control is set as 0% activity.

For `Cc1nnc(-c2cccc(-c3ccc(Cc4ccc(-n5nc(C(N)=O)cc5C)cc4)cc3)c2)o1` [Example 3-7, 5-methyl-1-(4-((3′-(5-methyl-1,3,4-oxadiazol-2-yl)-[1,1′-biphenyl]-4-yl)methyl)phenyl)-1H-pyrazole-3-carboxamide], the half-maximal activity concentration (AC50) (usually the midpoint of the concentration-response curve, whichever way the signal moves) worked out at 499 nM. The result for `Cc1cc(C(N)=O)nn1-c1ccc(Cc2ccc(-c3ccc(C(=O)N4CCNCC4)cn3)cc2)cc1` [Example 27, 5-methyl-1-(4-(4-(5-(piperazine-1-carbonyl)pyridin-2-yl)benzyl)phenyl)-1H-pyrazole-3-carboxamide] reads 213 nM; that for `Cc1cc(C(N)=O)nn1-c1ccc(Cc2ccc(-c3ccc(CN4CCN(C5COC5)CC4)cn3)cc2)cc1` [Example 33, 5-methyl-1-(4-(4-(5-((4-(oxetan-3-yl)piperazin-1-yl)methyl)pyridin-2-yl)benzyl)phenyl)-1H-pyrazole-3-carboxamide], 138 nM.

`Cc1nc(C(N)=O)nn1-c1ccc(Cc2ccc(-c3ccc(CN4CCN[C@@H](C)C4)nc3)cc2)cc1` [Example 36, (S)-5-methyl-1-(4-(4-(6-((3-methylpiperazin-1-yl)methyl)pyridin-3-yl)benzyl)phenyl)-1H-1,2,4-triazole-3-carboxamide]: the AC50 came to 183 nM.

For `Cc1nc(C(N)=O)nn1-c1ccc(Cc2ccc(-c3ccc(CN4CCC5(COC5)C4)cc3)cc2)cc1` [Example 38-1, 1-(4-((4′-((2-oxa-6-azaspiro[3.4]octan-6-yl)methyl)-[1,1′-biphenyl]-4-yl)methyl)phenyl)-5-methyl-1H-1,2,4-triazole-3-carboxamide], the AC50 turned out to be 2 nM. On to `Cc1nc(C(N)=O)nn1-c1ccc(Cc2ccc(-c3ccc(CN4C[C@H]5CN(C)C[C@H]5C4)cc3)cc2)cc1` [Example 38-3], for which the AC50 came to 35 nM. The result for `Cc1nc(C(N)=O)nn1-c1ccc(Cc2ccc(-c3ccc(CN4CCCC5(COC5)C4)cc3)cc2)cc1` [Example 38-6] reads 74 nM. The result for `Cc1nc(C(N)=O)nn1-c1ccc(Cc2ccc(-c3ccc(CN4CCC(N(C)C)CC4)cc3)cc2)cc1` [Example 39-2] reads 5 nM. The result for `Cc1nc(C(N)=O)nn1-c1ccc(Cc2ccc(-c3ccc(CN4CCCC(C(C)(C)O)C4)cc3)cc2)cc1` (stereo not drawn) [Example 39-7] reads 29 nM. In the case of `Cc1nc(C(N)=O)nn1-c1ccc(Cc2ccc(-c3ccc(CN4CC(O)C4)cc3)cc2)cc1` [Example 39-8], the AC50 came out at 864 nM. In the case of `Cc1nc(C(N)=O)nn1-c1ccc(Cc2ccc(-c3ccc(CN4C[C@@H](C)N[C@H](C)C4)cc3)cc2)cc1` [Example 39-9], the AC50 was 123 nM. `Cc1nc(C(N)=O)nn1-c1ccc(Cc2ccc(-c3ccc(CN4CCC(C)(O)C4)cc3)cc2)cc1` (stereo not drawn) [Example 39-10]: the AC50 came to 13 nM. Then `Cc1nc(C(N)=O)nn1-c1ccc(Cc2ccc(-c3ccc(CN4CC5(CCCO5)C4)cc3)cc2)cc1` [Example 39-11], with 241 nM. Regarding `Cc1nc(C(N)=O)nn1-c1ccc(Cc2ccc(-c3ccc(CN4CCN[C@@H](CO)C4)cc3)cc2)cc1` [Example 39-12], the AC50 stood at 181 nM. On to `Cc1nc(C(N)=O)nn1-c1ccc(Cc2ccc(-c3ccc(CN4CC[C@@H](F)C4)cc3)cc2)cc1` [Example 39-13], for which the AC50 came out at 79 nM. Regarding `Cc1nc(C(N)=O)nn1-c1ccc(Cc2ccc(-c3ccc(CN4CCC(S(C)(=O)=O)C4)cc3)cc2)cc1` (stereo not drawn) [Example 39-14], the AC50 is 54 nM.

As for `Cc1nc(C(N)=O)nn1-c1ccc(Cc2ccc(-c3ccc(CN4CCC5CN(C)CC54)cc3)cc2)cc1` (stereo not drawn) [Example 39-15], the AC50 stood at 5 nM. The result for `Cc1nc(C(N)=O)nn1-c1ccc(Cc2ccc(-c3ccc(CN4CCCC(C)(O)C4)cc3)cc2)cc1` (stereo not drawn) [Example 39-16] reads 56 nM; that for `Cc1nc(C(N)=O)nn1-c1ccc(Cc2ccc(-c3ccc(CN4CCN(C(C)(C)C)CC4)cc3)cc2)cc1` [Example 39-17], 85 nM; that for `Cc1nc(C(N)=O)nn1-c1ccc(Cc2ccc(-c3ccc(CN4CCNC(C)(C)C4)cc3)cc2)cc1` [Example 39-18], 81 nM. Then `Cc1nc(C(N)=O)nn1-c1ccc(Cc2ccc(-c3ccc(CN4C[C@@H](C)N[C@@H](C)C4)cc3)cc2)cc1` [Example 39-19], with 65 nM; and `Cc1nc(C(N)=O)nn1-c1ccc(Cc2ccc(-c3ccc(CN4CCC(F)(F)CC4)cc3)cc2)cc1` [Example 39-20], with 140 nM; and `Cc1nc(C(N)=O)nn1-c1ccc(Cc2ccc(-c3ccc(CN4CCN5CCCCC5C4)cc3)cc2)cc1` (stereo not drawn) [Example 39-21], with 60 nM. For `Cc1nc(C(N)=O)nn1-c1ccc(Cc2ccc(-c3ccc(CN4CCCC[C@H]4CO)cc3)cc2)cc1` [Example 39-22], the AC50 came to 98 nM.

Consider `Cc1nc(C(N)=O)nn1-c1ccc(Cc2ccc(-c3ccc(CN4CCC(CO)CC4)cc3)cc2)cc1` [Example 39-23], for which the AC50 amounted to 18 nM. The result for `Cc1nc(C(N)=O)nn1-c1ccc(Cc2ccc(-c3ccc(CN4CC(C)(O)C4)cc3)cc2)cc1` [Example 39-24] reads 406 nM; that for `Cc1nc(C(N)=O)nn1-c1ccc(Cc2ccc(-c3ccc(CN4CCC(O)CC4)cc3)cc2)cc1` [Example 39-25], 105 nM; that for `Cc1nc(C(N)=O)nn1-c1ccc(Cc2ccc(-c3ccc(CN4C[C@H]5COC[C@H]5C4)cc3)cc2)cc1` [Example 39-26], 31 nM. In the case of `Cc1nc(C(N)=O)nn1-c1ccc(Cc2ccc(-c3ccc(CN4CCCC(F)C4)cc3)cc2)cc1` (stereo not drawn) [Example 39-27], the AC50 worked out at 46 nM. Then `Cc1nc(C(N)=O)nn1-c1ccc(Cc2ccc(-c3ccc(CN4CCCN(C)CC4)cc3)cc2)cc1` [Example 39-28], with 39 nM.

Turning to `Cc1nc(C(N)=O)nn1-c1ccc(Cc2ccc(-c3ccc(CN4C[C@H](O)[C@@H](O)C4)cc3)cc2)cc1` [Example 39-29], the AC50 is 180 nM. The result for `Cc1nc(C(N)=O)nn1-c1ccc(Cc2ccc(-c3ccc(CN4C[C@H]5CCN(C)[C@H]5C4)cc3)cc2)cc1` [Example 39-30] reads 32 nM; that for `Cc1nc(C(N)=O)nn1-c1ccc(Cc2ccc(-c3ccc(CN4CCC(S(C)(=O)=O)CC4)cc3)cc2)cc1` [Example 39-31], 49 nM; that for `Cc1nc(C(N)=O)nn1-c1ccc(Cc2ccc(-c3ccc(CN4CC(F)(F)C4)cc3)cc2)cc1` [Example 39-33], 42 nM. For the molecule `Cc1nc(C(N)=O)nn1-c1ccc(Cc2ccc(-c3ccc(CN4C[C@@H]5[C@@H](CO)[C@@H]5C4)cc3)cc2)cc1` [Example 39-34], the AC50 was 10 nM. The result for `Cc1nc(C(N)=O)nn1-c1ccc(Cc2ccc(-c3ccc(CN4CCC(C(F)(F)F)CC4)cc3)cc2)cc1` [Example 39-35] reads 145 nM. Take `Cc1nc(C(N)=O)nn1-c1ccc(Cc2ccc(-c3ccc(CN4CC(CO)C4)cc3)cc2)cc1` [Example 39-36]: the AC50 is 164 nM. Then `Cc1cc(C(N)=O)nn1-c1ccc(Cc2ccc(C34CCC(C(=O)N5CCNCC5)(CC3)CC4)cc2)cc1` [Example 42, 5-methyl-1-(4-(4-(4-(piperazine-1-carbonyl)bicyclo[2.2.2]octan-1-yl)benzyl)phenyl)-1H-pyrazole-3-carboxamide], with 55 nM. As for `Cc1cc(C(N)=O)nn1-c1ccc(Cc2ccc(C34CCC(C(=O)N5CCN(C)CC5)(CC3)CC4)cc2)cc1` [Example 43, 5-methyl-1-(4-(4-(4-(4-methylpiperazine-1-carbonyl)bicyclo[2.2.2]octan-1-yl)benzyl)phenyl)-1H-pyrazole-3-carboxamide], the AC50 worked out at 17 nM.

As for `Cc1nc(C(N)=O)nn1-c1ccc(Cc2ccc(C3CC4(CC(C(=O)N5CCNCC5)C4)C3)cc2)cc1` (stereo not drawn) [Example 44, 5-methyl-1-(4-(4-(6-(piperazine-1-carbonyl)spiro[3.3]heptan-2-yl)benzyl)phenyl)-1H-1,2,4-triazole-3-carboxamide], the AC50 is 134 nM.

As for `Cc1cc(C(N)=O)nn1-c1ccc(Cc2ccc(-c3ccc(C(C)(C)CO)cn3)cc2)cc1` [Example 57, 1-(4-(4-(5-(1-hydroxy-2-methylpropan-2-yl)pyridin-2-yl)benzyl)phenyl)-5-methyl-1H-pyrazole-3-carboxamide], the AC50 was 49 nM. The result for `Cc1cc(C(N)=O)nn1-c1ccc(Cc2ccc(-c3ccc(C(C)(C)O)nn3)cc2)cc1` [Example 58, 1-(4-(4-(6-(2-hydroxypropan-2-yl)pyridazin-3-yl)benzyl)phenyl)-5-methyl-1H-pyrazole-3-carboxamide] reads 225 nM; that for `Cc1cc(C(N)=O)nn1-c1ccc(Cc2ccc(-c3ccc(C(=O)NCC(C)(C)O)cn3)cc2)cc1` [Example 59, 6-(4-(4-(3-carbamoyl-5-methyl-1H-pyrazol-1-yl)benzyl)phenyl)-N-(2-hydroxy-2-methylpropyl)nicotinamide], 58 nM; that for `Cc1cc(C(N)=O)nn1-c1ccc(Cc2ccc(-c3cnc(C(C)(C)O)nc3)cc2)cc1` [Example 60, 1-(4-(4-(2-(2-hydroxypropan-2-yl)pyrimidin-5-yl)benzyl)phenyl)-5-methyl-1H-pyrazole-3-carboxamide], 83 nM. For the molecule `Cc1cc(C(N)=O)nn1-c1ccc(Cc2ccc(-c3ccnc(CO)c3)cc2)cc1` [Example 61, 1-(4-(4-(2-(hydroxymethyl)pyridin-4-yl)benzyl)phenyl)-5-methyl-1H-pyrazole-3-carboxamide], the AC50 turned out to be 187 nM.
